Source: US20070219348A1, “Mutations in the mineralocorticoid receptor ligand binding domain polypeptide that permit structural determination of low affinity ligand complexes and screening methods employing same” (priority 2006, published 2007)
Numbering of substitutions follows the chain as printed. Read-outs that look alike come from different tables or passages of the source.

T1: Wild type MR (Homo sapiens, UniProt P08235)
T1 sequence (P08235 1-984): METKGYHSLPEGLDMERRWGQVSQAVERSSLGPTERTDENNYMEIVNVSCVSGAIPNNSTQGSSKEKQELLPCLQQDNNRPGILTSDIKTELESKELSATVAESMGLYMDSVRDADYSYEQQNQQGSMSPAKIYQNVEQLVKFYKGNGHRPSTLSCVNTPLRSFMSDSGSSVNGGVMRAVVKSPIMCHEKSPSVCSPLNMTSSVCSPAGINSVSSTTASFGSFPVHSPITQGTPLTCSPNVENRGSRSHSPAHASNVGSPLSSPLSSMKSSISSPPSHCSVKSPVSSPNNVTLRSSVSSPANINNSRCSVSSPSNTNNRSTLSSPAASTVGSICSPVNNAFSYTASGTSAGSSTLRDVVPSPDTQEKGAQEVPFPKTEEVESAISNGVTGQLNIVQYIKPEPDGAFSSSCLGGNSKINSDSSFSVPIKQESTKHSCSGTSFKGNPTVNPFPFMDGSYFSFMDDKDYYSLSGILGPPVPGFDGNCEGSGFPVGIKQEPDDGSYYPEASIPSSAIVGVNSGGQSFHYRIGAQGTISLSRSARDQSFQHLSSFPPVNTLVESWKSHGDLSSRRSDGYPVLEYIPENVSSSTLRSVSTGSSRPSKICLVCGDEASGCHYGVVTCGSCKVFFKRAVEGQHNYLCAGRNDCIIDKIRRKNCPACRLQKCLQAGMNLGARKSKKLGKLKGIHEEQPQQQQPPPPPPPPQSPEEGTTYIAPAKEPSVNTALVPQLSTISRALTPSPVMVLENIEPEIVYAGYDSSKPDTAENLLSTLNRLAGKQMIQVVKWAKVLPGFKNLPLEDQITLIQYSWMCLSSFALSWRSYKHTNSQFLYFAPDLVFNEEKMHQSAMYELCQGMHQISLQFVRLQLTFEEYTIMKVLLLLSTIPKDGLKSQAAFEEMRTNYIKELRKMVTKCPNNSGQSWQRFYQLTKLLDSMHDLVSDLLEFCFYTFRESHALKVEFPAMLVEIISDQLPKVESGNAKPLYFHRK

T2: MR S810L (Homo sapiens, UniProt P08235, S810L)
T2 sequence (P08235 1-984 S810L): T1 sequence (P08235 1-984) with S810L

T3: MR (Homo sapiens, UniProt P08235)
T3 sequence (P08235 1-984): T1 sequence (P08235 1-984)

B1: Native (wild type) MR LBD (amino acids 712-984) (receptor)
chain: APAKEPSVNTALVPQLSTISRALTPSPVMVLENIEPEIVYAGYDSSKPDTAENLLSTLNRLAGKQMIQVVKWAKVLPGFKNLPLEDQITLIQYSWMCLSSFALSWRSYKHTNSQFLYFAPDLVFNEEKMHQSAMYELCQGMHQISLQFVRLQLTFEEYTIMKVLLLLSTIPKDGLKSQAAFEEMRTNYIKELRKMVTKCPNNSGQSWQRFYQLTKLLDSMHDLVSDLLEFCFYTFRESHALKVEFPAMLVEIISDQLPKVESGNAKPLYFHRK
notes: Crystallized with deoxycorticosterone; the final model holds residues 727-908 and 914-984; also called native MR; WT MR

Tests used:
Reporter Alone = experiment: Ligand binding affinities on MR constructs (Table 1), Reporter Alone; conditions: read-out: IC50 binding affinity, Reporter Alone
Method: (§1) As used herein, the terms “weakly binding ligand” and “weak ligand” are used interchangeably and mean a ligand that binds a receptor with low affinity. The binding strength of a ligand to a receptor can be experimentally measured using any of several procedures, as is generally known in the art. In some embodiments of the presently disclosed subject matter, ligand binding is measured using a competitive binding assay in which a ligand of interest competes with a labeled ligand for binding to a receptor. […] This quantitative measurement can be expressed as an IC50 value. Therefore, the greater the IC50 value of a ligand, the lower the binding affinity the ligand has for the receptor.
(§2) Cortisol has a hydroxyl attached to C11, where cortisone has a ketone.

Wild type MR = molecular target: T1, Wild type MR; experiment: Ligand binding affinities on MR constructs (Table 1), wild type MR
Method: as §1, §2

MR S810L = molecular target: T2, MR S810L; experiment: Ligand binding affinities on MR constructs (Table 1), MR S810L; conditions: read-out: IC50 binding affinity, MR S810L
Method: as §1, §2

MR = molecular target: T3, MR; conditions: Quinkler & Stewart, 2003; cited from earlier work
[1] = molecular target: the molecule itself; experiment: X-ray crystal structure of native MR LBD with deoxycorticosterone (crystal contact)

Row | Molecule | IC50 (Reporter Alone; cells printed in nM) | IC50 (Reporter Alone; in uM) | IC50 (MR S810L) | binding affinity for MR in words (MR) | also measured
1 | CC(=O)S[C@@H]1CC2=CC(=O)CC[C@]2(C)[C@H]2CC[C@@]3(C)[C@@H](CC[C@@]34CCC(=O)O4)[C@H]12 [Spironolactone, spironolactone] | 3.6 nM |  |  |  | 
2 | C[C@]12CCC(=O)C=C1CC[C@@H]1[C@@H]2C(=O)C[C@@]2(C)[C@H]1CC[C@]2(O)C(=O)CO [Cortisone, cortisone] |  | > 10000 nM | 20 nM | micromolar binder | IC50 (Wild type MR; Wild type MR, in uM, read-out: IC50 binding affinity, Wild type MR): > 10 µM; fold difference in IC50s between cortisone and cortisol (Wild type MR; wild type MR, transactivation assays): > 700 fold; IC50 (Wild type MR; wild-type MR, read-out: IC50 binding affinity, wild-type MR): > 10 µM
3 | C[C@]12CCC(=O)C=C1CC[C@@H]1[C@@H]2[C@@H](O)C[C@]2(C=O)[C@@H](C(=O)CO)CC[C@@H]12 [Aldosterone, aldosterone] |  | > 10000 nM |  |  | 
4 | C[C@]12CCC(=O)C=C1CC[C@@H]1[C@@H]2[C@@H](O)C[C@@]2(C)[C@H]1CC[C@]2(O)C(=O)CO [Cortisol, cortisol] | 785 nM |  | 20 nM | low nM binder | IC50 (Wild type MR; Wild type MR, cells printed in nM, read-out: IC50 binding affinity, Wild type MR): 0.021 µM
5 | CC(=O)[C@H]1CC[C@H]2[C@@H]3CCC4=CC(=O)CC[C@]4(C)[C@H]3CC[C@]12C [Progesterone, progesterone] |  | > 10000 nM |  |  | 
6 | B1 |  |  |  |  | binding result [1]: binds
